Experimental data from patent publication US8691805B2, “Azetidinyl diamides as monoacylglycerol lipase inhibitors” (Janssen Pharmaceutica NV, priority 2009, dated 2014).

How the values were obtained:
[1] = system: CFA-induced paw radiant heat hypersensitivity in rats; test: CFA-induced paw radiant heat hypersensitivity; type: in vivo; conditions: rat, 30 mg/kg p.o., HPβCD, group mean values, last time point 180 or 300 min
Method: Each rat was placed in a test chamber on a warm glass surface and allowed to acclimate for approximately 10 min. A radiant thermal stimulus (beam of light) was then focused through the glass onto the plantar surface of each hind paw in turn. The thermal stimulus was automatically shut off by a photoelectric relay when the paw was moved or when the cut-off time was reached (20 sec for radiant heat at ˜5 amps). An initial (baseline) response latency to the thermal stimulus was recorded for each animal prior to the injection of complete Freund's adjuvant (CFA). 24 h following intraplantar CFA injection, the response latency of the animal to the thermal stimulus was then re-evaluated and compared to the animal's baseline response time. […] Post-compound treatment withdrawal latencies were assessed at fixed time intervals, typically 30, 60, 120, 180, and 300 min.
The percent reversal (% R) of hypersensitivity was calculated in one of two different ways: 1) using group mean values or 2) using individual animal values. […]
Method 1. For all compounds, the % R of hypersensitivity was calculated using the mean value for groups of animals at each time point according to the following formula: % reversal=[(group treatment response−group CFA response)/(group baseline response−group CFA response)]×100 Results are given for the maximum % reversal observed for each compound at any time point tested. […]

[2] = target: T1, MGL in rat brain homogenate (Rattus norvegicus, UniProt Q8R431); test: 2-AG accumulation assay in rat brain homogenate; type: biochemical; conditions: 2-AG accumulation as percent of vehicle; for Rat Brain 2AG % VehCntrl (%) @10 μM: compound 10 μM
T1 construct: one g rat brain was homogenized; from tissue; host or cells: rat brain homogenate
T1 sequence (Q8R431 1-303): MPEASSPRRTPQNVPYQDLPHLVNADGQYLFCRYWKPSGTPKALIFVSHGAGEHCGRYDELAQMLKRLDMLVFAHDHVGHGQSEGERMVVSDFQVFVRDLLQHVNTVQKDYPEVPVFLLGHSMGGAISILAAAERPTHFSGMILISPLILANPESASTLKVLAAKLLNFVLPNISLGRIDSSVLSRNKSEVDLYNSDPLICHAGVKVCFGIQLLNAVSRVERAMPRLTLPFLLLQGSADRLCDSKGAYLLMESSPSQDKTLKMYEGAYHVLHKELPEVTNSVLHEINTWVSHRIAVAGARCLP

[3] = target: T2, mutant MGL (Homo sapiens, UniProt Q99685, L169S/L176S); test: MGL ThermoFluor assay - mutant; conditions: read-out: MGL mutant ThermoFluor Kd, ThermoFluor thermal shift
T2 sequence (Q99685 1-303 L169S/L176S): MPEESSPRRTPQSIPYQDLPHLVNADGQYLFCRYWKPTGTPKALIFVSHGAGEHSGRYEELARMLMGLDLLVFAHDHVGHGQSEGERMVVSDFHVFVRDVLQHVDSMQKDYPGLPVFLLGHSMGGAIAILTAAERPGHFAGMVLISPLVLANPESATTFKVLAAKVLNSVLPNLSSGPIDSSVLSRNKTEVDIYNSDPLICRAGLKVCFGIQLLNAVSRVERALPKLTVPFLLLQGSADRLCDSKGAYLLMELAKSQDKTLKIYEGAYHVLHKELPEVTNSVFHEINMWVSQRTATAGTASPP
Method: The ThermoFluor (TF) assay is a 384-well plate-based binding assay that measures thermal stability of proteins^1,2. […] TF dye used in all experiments was 1,8-ANS (Invitrogen: A-47). Final TF assay conditions used for MGL studies were 0.07 mg/ml of mutant MGL, 100 μM ANS, 200 mM NaCl, 0.001% Tween-20 in 50 mM PIPES (pH=7.0).
Screening compound plates contained 100% DMSO compound solutions at a single concentration. […] Columns 12 and 24 were used as DMSO reference and contained no compound. […] Following compound dispension, protein and dye solutions were added to achieve the final assay volume of 3 μL.
Bar-coded assay plates were robotically loaded onto a thermostatically controlled PCR-type thermal block and then heated from 40 to 90° C. degrees at a ramp-rate of 1° C./min for all experiments. Fluorescence was measured by continuous illumination with UV light (Hamamatsu LC6), supplied via fiber optics and filtered through a band-pass filter (380-400 nm; >6 OD cutoff). Fluorescence emission of the entire 384-well plate was detected by measuring light intensity using a CCD camera (Sensys, Roper Scientific) filtered to detect 500±25 nm, resulting in simultaneous and independent readings of all 384 wells. […]

[4] = system: murine model of acute inflammation; conditions: Comelli et al. 2007; cited from earlier work

Row | SMILES | Method 1: peak % reversal [1] | Rat Brain 2AG % VehCntrl (%) @10 μM [2] | other results
1 | O=C(c1ccc2c(ccn2-c2ccc(C(F)(F)F)cc2)c1)N1CC(N2CCN(C(=O)c3cscn3)CC2)C1 [Cpd 1359, 5-({3-[4-(1,3-Thiazol-4-ylcarbonyl)piperazin-1-yl]azetidin-1-yl}carbonyl)-1-[4-(trifruoromethyl)phenyl]-1 H-indole] | 5.1% |  | 
2 | O=C(c1ccc(-c2ccc(O)cc2)cc1)N1CC(N2CCN(C(=O)c3nccs3)CC2)C1 [Cpd 211, 4′-({3-[(1,3-Thiazol-2-ylcarbonyl)piperazin-1-yl]azetidin-1-yl}carbonyl)biphenyl-4-ol] |  | 725% | 
3 | O=C(c1nccs1)N1CCN(C2CN(C(=O)[C@@H]3C[C@H]3c3ccccc3Cl)C2)CC1 (racemic) [Cpd 642] |  |  | Rat Brain 2AG % VehCntrl (%) @1 μM ([2]; compound 1 μM): 170%; Kd [3]: 499 nM
4 | COc1ccc(-c2ccc(C(=O)N3CC(N4CCN(C(=O)c5nccs5)CC4)C3)cc2)cc1C=O [Cpd 216, 4-Methoxy-4′-({3-[(1,3-thiazol-2-ylcarbonyl)piperazin-1-yl]azetidin-1-yl}carbonyl)biphenyl-3-carbaldehyde] |  | 625% | 
5 | O=C(c1ccc(-c2cccc(C(F)(F)F)c2)c(Cl)c1)N1CC(N2CCN(C(=O)c3cscn3)CC2)C1 [Cpd 1102] | 38% |  | 
6 | O=C(Nc1cccc(-c2ccccc2)c1)OC1CCCCC1 [URB602] |  |  | antinociceptive effect [4]: showed an antinociceptive effect
